Source: ChEMBL document CHEMBL1138490, “Gamma-aminobutyric acid amides of nortriptyline and fluoxetine display improved pain suppressing activity” (2009)
Active and inactive are the calls of the source. No cut-off for these calls is given here.

Legend:
Mus musculus [1] = test: Anxiolytic activity in BALB/c mouse assessed as distance moved at equimolar oral dose relative to 5 mg/kg nortriptyline after 90 mins by open-field test (RVb= 8485+/-610 cm); type: functional
Mus musculus [2] = test: Antinociceptive activity against formalin-induced pain in BALB/c mouse assessed paw licking, biting or shaking at 5 mg/kg, po administered 2 hrs before formalin challenge measured after 0 to 5 mins relative to control; type: functional, organism-based; design: dose 5 mg/kg
Mus musculus [3] = test: Antinociceptive activity in BALB/c mouse assessed as […] at 4.5 mg/kg, po after 240 mins by hot plate method; type: functional, organism-based; design: dose 4.5 mg/kg
Mus musculus [4] = test: Antinociceptive activity against formalin-induced pain in BALB/c mouse assessed paw licking, biting or shaking at 5 mg/kg, po equimolar dose of nortriptyline administered 2 hrs before formalin challenge measured after 0 to 5 mins relative to control; type: functional, organism-based; design: dose 5 mg/kg
Mus musculus [5] = test: Antinociceptive activity in BALB/c mouse assessed as […] at 4.5 mg/kg, po equimolar dose of nortriptyline after 240 mins by hot plate method; type: functional, organism-based; design: dose 4.5 mg/kg
Mus musculus [6] = test: Anxiolytic activity in BALB/c mouse assessed as velocity at equimolar oral dose relative to 5 mg/kg nortriptyline after 90 mins by open-field test (RVb= 7.07+/-0.51 cm/s); type: functional
Mus musculus [7] = test: Antinociceptive activity against formalin-induced pain in BALB/c mouse assessed paw licking, biting or shaking at 0.5 mg/kg, po administered 2 hrs before formalin challenge measured after 0 to 5 mins relative to control; type: functional, organism-based; design: dose 0.5 mg/kg
Rattus norvegicus [8] = test: Antiinflammatory activity against gamma carrageenan-induced paw edema in Wistar rat assessed as reduction in paw volume at 5 mg/kg, po equimolar dose of nortriptyline administered 2 hrs before carrageenan challenge measured after 4 hrs relative to control; type: functional, organism-based; design: dose 5 mg/kg
Mus musculus [9] = test: Antiinflammatory activity against formalin-induced BALB/c mouse skin assessed as reduction in TNFalpha level at to 0.5 mg/kg, po; type: functional, organism-based; design: dose 0.5 mg/kg
Mus musculus [10] = test: Antinociceptive activity in BALB/c mouse assessed as […] at 0.25 mg/kg, po equimolar dose of nortriptyline after 240 mins by hot plate method; type: functional, organism-based; design: dose 0.25 mg/kg
Mus musculus [11] = test: Anxiolytic activity in BALB/c mouse assessed as velocity at equimolar oral dose relative to 15 mg/kg nortriptyline after 90 mins by open-field test (RVb= 7.07+/-0.51 cm/s); type: functional
Mus musculus [12] = test: Antinociceptive activity against formalin-induced pain in BALB/c mouse assessed paw licking, biting or shaking at 0.5 mg/kg, po administered 2 hrs before formalin challenge measured after 25 to 35 mins relative to control; type: functional, organism-based; design: dose 0.5 mg/kg
Mus musculus [13] = test: Antinociceptive activity against formalin-induced pain in BALB/c mouse assessed paw licking, biting or shaking at 0.5 mg/kg, po equimolar dose of nortriptyline administered 2 hrs before formalin challenge measured after 0 to 5 mins relative to control; type: functional, organism-based; design: dose 0.5 mg/kg
Mus musculus [14] = test: Anxiolytic activity in BALB/c mouse assessed as immobility at equimolar oral dose relative to 15 mg/kg nortriptyline after 90 mins by open-field test (RVb= 458.4+/-41 s); type: functional
Mus musculus [15] = test: Antinociceptive activity against formalin-induced pain in BALB/c mouse assessed paw licking, biting or shaking at 5 mg/kg, po administered 2 hrs before formalin challenge measured after 25 to 35 mins relative to control; type: functional, organism-based; design: dose 5 mg/kg
Mus musculus [16] = test: Anxiolytic activity in BALB/c mouse assessed as immobility at equimolar oral dose relative to 5 mg/kg nortriptyline after 90 mins by open-field test (RVb= 458.4+/-41 s); type: functional
Mus musculus [17] = test: Antinociceptive activity in BALB/c mouse assessed as increase in paw withdrawal latency time at 0.2 mg/kg, po equimolar dose of nortriptyline daily measured after 3 to 5 hrs on day 10 to 12; type: functional, organism-based; design: dose 0.2 mg/kg
Mus musculus [18] = test: Antinociceptive activity in BALB/c mouse assessed as increase in paw withdrawal latency time at 0.2 mg/kg, po daily for 12 days measured after 3 to 5 hrs on day 1; type: functional, organism-based; design: dose 0.2 mg/kg
Mus musculus [19] = test: Antinociceptive activity in BALB/c mouse assessed as […] at 0.25 mg/kg, po after 240 mins by hot plate method; type: functional, organism-based; design: dose 0.25 mg/kg
Rattus norvegicus [20] = organism: Rattus norvegicus; test: Displacement of [3H]GABA from non selective GABA receptor in rat cerebral cortex; type: tissue-based; details: concentration not given here
Mus musculus [21] = test: Antinociceptive activity in BALB/c mouse assessed as increase in paw withdrawal latency time at 0.2 mg/kg, po equimolar dose of nortriptyline daily measured after 3 to 5 hrs on day 3 to 12; type: functional, organism-based; design: dose 0.2 mg/kg
Rattus norvegicus [22] = test: Antiinflammatory activity against gamma carrageenan-induced paw edema in Wistar rat assessed as reduction in paw volume at 5 mg/kg, po administered 2 hrs before carrageenan challenge measured after 24 hrs relative to control; type: functional, organism-based; design: dose 5 mg/kg
Mus musculus [23] = test: Antinociceptive activity in BALB/c mouse assessed as […] at 10 mg/kg, po after 240 mins by hot plate method; type: functional, organism-based; design: dose 10 mg/kg
Mus musculus [24] = test: Antinociceptive activity in BALB/c mouse assessed as paw withdrawal latency at 0.4 mg/kg, po equimolar dose of nortriptyline after 2 to 4 hrs by hot plate method; type: functional, organism-based; design: dose 0.4 mg/kg
Rattus norvegicus [25] = test: Antiinflammatory activity against gamma carrageenan-induced paw edema in Wistar rat assessed as reduction in paw volume at 5 mg/kg, po administered 2 hrs before carrageenan challenge measured after 4 hrs relative to control; type: functional, organism-based; design: dose 5 mg/kg
Rattus norvegicus [26] = test: Antiinflammatory activity against gamma carrageenan-induced paw edema in Wistar rat assessed as paw volume at 5 mg/kg, po equimolar dose of nortriptyline administered 2 hrs before carrageenan challenge relative to control; type: functional, organism-based; design: dose 5 mg/kg
Rattus norvegicus [27] = test: Antiinflammatory activity against gamma carrageenan-induced paw edema in Wistar rat assessed as reduction in paw volume at 5 mg/kg, po equimolar dose of nortriptyline administered 2 hrs before carrageenan challenge measured after 24 hrs relative; type: functional, organism-based; design: dose 5 mg/kg
Mus musculus [28] = test: Anxiolytic activity in BALB/c mouse assessed as distance moved at equimolar oral dose relative to 15 mg/kg nortriptyline after 90 mins by open-field test (RVb= 8485+/-610 cm); type: functional
Mus musculus [29] = test: Anxiolytic activity in BALB/c mouse assessed as distance moved at equimolar oral dose relative to 1 mg/kg nortriptyline after 90 mins by open-field test (RVb= 8485+/-610 cm); type: functional
Mus musculus [30] = test: Antinociceptive activity in BALB/c mouse assessed as paw withdrawal latency at 0.4 mg/kg, po after 2 to 4 hrs by hot plate method; type: functional, organism-based; design: dose 0.4 mg/kg
Mus musculus [31] = test: Antinociceptive activity in BALB/c mouse assessed as increase in paw withdrawal latency time at 0.2 mg/kg, po equimolar dose of nortriptyline daily measured after 3 to 5 hrs on day 1; type: functional, organism-based; design: dose 0.2 mg/kg
Mus musculus [32] = test: Antinociceptive activity in BALB/c mouse assessed as […] at 0.5 mg/kg, po equimolar dose of nortriptyline after 240 mins by hot plate method; type: functional, organism-based; design: dose 0.5 mg/kg
Mus musculus [33] = test: Antinociceptive activity in BALB/c mouse assessed as decrease in inhibition of paw withdrawal latency at 2.39 mg/kg, po after by hot plate method; type: functional, organism-based; design: dose 2.39 mg/kg
Mus musculus [34] = test: Anxiolytic activity in BALB/c mouse assessed as immobility at equimolar oral dose relative to 1 mg/kg nortriptyline after 90 mins by open-field test (RVb= 458.4+/-41 s); type: functional
Mus musculus [35] = test: Antinociceptive activity against formalin-induced pain in BALB/c mouse assessed paw licking, biting or shaking at 0.5 mg/kg, po equimolar dose of nortriptyline administered 2 hrs before formalin challenge measured after 25 to 35 mins relative to control; type: functional, organism-based; design: dose 0.5 mg/kg
Mus musculus [36] = test: Antinociceptive activity against formalin-induced pain in BALB/c mouse assessed paw licking, biting or shaking at 5 mg/kg, po equimolar dose of nortriptyline administered 2 hrs before formalin challenge measured after 25 to 35 mins relative to control; type: functional, organism-based; design: dose 5 mg/kg
Rattus norvegicus [37] = organism: Rattus norvegicus; test: Displacement of [3H]muscimol from GABAA receptor in rat cerebral cortex; type: tissue-based; details: concentration not given here
Mus musculus [38] = test: Antinociceptive activity in BALB/c mouse assessed as decrease in inhibition of paw withdrawal latency at 0.1 mg/kg, po after by hot plate method; type: functional, organism-based; design: dose 0.1 mg/kg
Mus musculus [39] = test: Anxiolytic activity in BALB/c mouse assessed as velocity at equimolar oral dose relative to 1 mg/kg nortriptyline after 90 mins by open-field test (RVb= 7.07+/-0.51 cm/s); type: functional

SMILES: CN(CCC=C1c2ccccc2CCc2ccccc21)C(=O)CCCN.Cl [BL-1021]
- Activity (Mus musculus [1]): 8157 cm
- Activity (Mus musculus [2]): Active
- Activity (Mus musculus [3]): Active
- Activity (Mus musculus [4]): Active
- Activity (Mus musculus [5]): Active
- Activity (Mus musculus [6]): 6.85 cm/s
- Activity (Mus musculus [7]): Active
- Activity (Rattus norvegicus [8]): inactive
- Activity (Mus musculus [9]): Active
- Activity (Mus musculus [10]): Active
- Activity (Mus musculus [11]): 6.18 cm/s
- Activity (Mus musculus [12]): Active
- Activity (Mus musculus [13]): Active
- Activity (Mus musculus [14]): 572.8 s
- Activity (Mus musculus [15]): Active
- Activity (Mus musculus [16]): 467.9 s
- Activity (Mus musculus [17]): Active
- Activity (Mus musculus [18]): Active
- Activity (Mus musculus [19]): Active
- inhibition (Rattus norvegicus [20]): 6%
- Activity (Mus musculus [21]): Active
- Activity (Rattus norvegicus [22]): inactive
- Activity (Mus musculus [23]): Active
- Activity (Mus musculus [24]): Active
- Activity (Rattus norvegicus [25]): inactive
- Activity (Rattus norvegicus [26]): Active
- Activity (Rattus norvegicus [27]): inactive
- Activity (Mus musculus [28]): 7413 cm
- Activity (Mus musculus [29]): 8053 cm
- Activity (Mus musculus [30]): Active
- Activity (Mus musculus [31]): Active
- Activity (Mus musculus [32]): Active
- Activity (Mus musculus [33]): Active
- Activity (Mus musculus [34]): 447.2 s
- Activity (Mus musculus [35]): Active
- Activity (Mus musculus [36]): Active
- inhibition (Rattus norvegicus [37]): 11%
- Activity (Mus musculus [38]): Active
- Activity (Mus musculus [39]): 6.72 cm/s
